Structures can show the parent of a compound that is named as a salt.

Consider 5 molecules from patent publication US12491217B2, “Compositions and methods for promoting healthy neural development in an unborn baby” (The Regents of the University of California, priority 2019, dated 2025).

For the test, the system named is thalamic explants from E14.5 embryos of ABX-treated dams. As to the kind of experiment: Axon outgrowth assay with individual metabolite supplementation. The following applies: for Length of ABX thalamic axons proximal to hypothalamus / Number of ABX thalamic axons proximal to hypothalamus: ABX thalamic + ABX hypothalamic explant; for Length of ABX thalamic axons proximal to hypothalamus / Number of ABX thalamic axons proximal to hypothalamus / Length of axons proximal to striatal explant: 1 nM, 100 nM, 10 uM; for Length of axons proximal to striatal explant / Number of axons per 200 μm of thalamic perimeter proximal to striatal explant: ABX thalamic + ABX striatal explant, 48 hrs; for Number of axons per 200 μm of thalamic perimeter proximal to striatal explant: physiologically-relevant concentrations (1 nM, 100 nM, 10 uM). In kind it is cell-based, C57Bl/6J mice. On the procedure:
Dams were sacrificed on E14.5 by cervical dislocation to preclude confounding effects of CO2 on maternal and fetal physiology. Thalamic, striatal, and hypothalamic explants were isolated from E14.5 embryonic brains and transferred to ice-cold HBSS (Invitrogen). Explants were sliced to ˜500 μm and placed on a thin layer of 50 μl BD Matrigel (Beckton Dickinson) on a 15 mm coverslip. Each coverslip contained a thalamic explant at the center and a striatal and hypothalamic explant on each side, at 1 mm equidistant from the thalamic explant. Explants were incubated in warmed neurobasal complete media containing 1× neurobasal medium (Thermofisher Scientific), 1× GlutaMax (Thermofisher Scientific), and 2% B-27 (Thermofisher Scientific) for 48 hrs at 37° C., and fed with fresh media every 24 hrs. After 48 hrs, media was gently aspirated and replaced with 4% PFA for 1 hr and processed for immunofluorescence staining with 1:500 (3 tubulin III anti-mouse antibody (EMD Millipore MAB1637). Axons were imaged using a Leica DMi8 epifluorescence microscope and quantified using Fiji software^78. Axon numbers were quantified per 200 μm of thalamus at a distance of 200 μm from the thalamus. Length of axons was quantified by averaging length of the 10 longest axons proximal to striatum or hypothalamus. Data for number and length of axons in the explant co-culture system was normalized by subtraction of data from monoculture of thalamic explants from the corresponding experimental group.
Thalamic, striatal, and hypothalamic explants from ABX-treated dams were harvested and cultured as described in the “axon outgrowth assay” section above. For metabolite treatment, BD Matrigel was supplemented with […], 100 nM, or 1 nM of trimethylamine-N-oxide (TMAO), 5-aminovalerate (5-AV), imidazole propionate (IP), 3-indoxyl-sulfate (3-IS), or hippurate (llip)^48,79-81. 5-aminovalerate is a precursor to N,N,N-trimethyl-5-aminovalerate (TMAV), which is not commercially available, and both are implicated in carnitine metabolism^82,83. Metabolite concentrations were determined as physiologically relevant, based on reported concentrations detected in blood and/or cerebrum from the mouse multiple tissue metabolomic database (MMIvIDB), human metabolome database (HMDB) and existing literature^48,79-81. Axons were stained, imaged and analyzed as described in the “axon outgrowth assay” section above.

For `O=S(=O)(O)Oc1c[nH]c2ccccc12` [3-IS, 3-indoxyl sulfate], the “Length of ABX thalamic axons proximal to hypothalamus” value (“Length of ABX thalamic axons proximal” for short) is on record as “No statistically significant changes”; the “Number of ABX thalamic axons proximal to hypothalamus” value (“Number of ABX thalamic axons proximal” below) is reported as “No statistically significant changes”; the “Length of axons proximal to striatal explant” value (shortened to “Length of axons proximal”) is “modest, but not statistically significant, increases in axon length”; the “Number of axons per 200 μm of thalamic perimeter proximal to striatal explant” value (“Number of axons per 200 μm … to striatal explant” below) is listed as “but not 3-IS, significantly increased axon number”.
For the molecule `NCCCCC(=O)O` [5-AV, 5-aminovalerate], the “Length of ABX thalamic axons proximal” value was “No statistically significant changes”, the “Number of ABX thalamic axons proximal” value is on record as “No statistically significant changes”, the “Length of axons proximal” value is listed as “significantly increased axon length” and the “Number of axons per 200 μm … to striatal explant” value is given as “significantly increased axon number to levels seen in fetal brain explants from embryos of SPF dams”.
With `O=C(O)CNC(=O)c1ccccc1` [HIP, hippurate], the “Length of ABX thalamic axons proximal” value was “No statistically significant changes”, the “Number of ABX thalamic axons proximal” value is reported as “No statistically significant changes”, the “Length of axons proximal” value is reported as “no effect” and the “Number of axons per 200 μm … to striatal explant” value is listed as “significantly increased axon number to levels seen in fetal brain explants from embryos of SPF dams”.
As for `O=C(O)CCc1cnc[nH]1` [IP, imidazole propionate], the “Length of ABX thalamic axons proximal” value was “No statistically significant changes”, the “Number of ABX thalamic axons proximal” value is listed as “No statistically significant changes”, the “Length of axons proximal” value is “significantly increased axon length” and the “Number of axons per 200 μm … to striatal explant” value was “significantly increased axon number to levels seen in fetal brain explants from embryos of SPF dams”.
In the case of `C[N+](C)(C)[O-]` [TMAO, trimethylamine-N-oxide], the “Length of ABX thalamic axons proximal” value is recorded as “No statistically significant changes”; the “Number of ABX thalamic axons proximal” value is on record as “No statistically significant changes”; the “Length of axons proximal” value is “modest, but not statistically significant, increases in axon length”; the “Number of axons per 200 μm … to striatal explant” value is “significantly increased axon number to levels seen in fetal brain explants from embryos of SPF dams”.
